This passage reports TGI and GI50 results from PubChem BioAssay (NCI).

Test systems include PC-3 prostate; 786-0 renal; MDA-N; HCC-2998 colon; ACHN renal; M14 melanoma; BT-549 breast; RPMI-8226 leukemia; SR leukemia; KM20L2 colon; SNB-78 CNS; DMS 273 small cell lung; DLD-1 colon; M19-MEL melanoma.
Holding throughout (assay): DTP human tumour cell line panel, 48 h

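Where inhibition never reached the appropriate level, the endpoint shown equals the highest concentration tested. Otherwise, values were interpolated linearly from a five-concentration, 48-hour dose response in 96-well plates. The concentration for 50% growth inhibition is given as GI50. TGI: concentration producing complete growth inhibition.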 Where a SMILES comes first, the peptide text is derived from it. Bridges are numbered along the chain shown (N, C = ends). Roman numbers before positions name the chains, in order. [ ]: non-standard residue; d: D form. The star is where a group is joined. Heptadecanoyl = CCCCCCCCCCCCCCCCC(=O)*; Phg = N[CH](C(=O)O)c1ccccc1 Bounds are passed on as bounds.

Regarding `CCC(C)(C)c1ccc(Oc2cccc(C(=O)O)c2)cc1`, the TGI in the assay with PC-3 prostate, with 786-0 renal, in the assay on MDA-N, with HCC-2998 colon, in the assay with ACHN renal and with M14 melanoma was > 100 µM throughout. The TGI (commonly the concentration giving total growth inhibition) was > 100 µM in the assay on BT-549 breast and 65.4 µM with RPMI-8226 leukemia.
`Cc1cccc(C(O)c2ccccn2)c1O` (configuration not stated): the TGI with PC-3 prostate, with MDA-N, in the assay on HCC-2998 colon, in the assay on SR leukemia, in the assay with ACHN renal and with BT-549 breast was > 100 µM each time. In addition, the TGI in the assay with RPMI-8226 leukemia is > 100 µM.
`CO[C@H]1C[C@H](O[C@H]2CC[C@]3(C=O)[C@H]4CC[C@]5(C)[C@@H](C6=CC(=O)OC6)CC[C@]5(O)[C@@H]4CC[C@]3(O)C2)O[C@H](C)[C@H]1O[C@@H]1O[C@H](CO[C@@H]2O[C@H](CO)[C@@H](O)[C@H](O)[C@H]2O)[C@@H](O)[C@H](O)[C@H]1O`: the TGI was 0.33 µM in the assay with PC-3 prostate; 0.0781 µM in the assay with 786-0 renal; 0.286 µM in the assay on MDA-N; 0.419 µM with SR leukemia; 0.135 µM in the assay on ACHN renal; 0.312 µM with M14 melanoma. Besides, the TGI in the assay with BT-549 breast is 0.164 µM.
With `CC1=C/C(=C(/c2ccc(O)c(C)c2)c2ccccc2C(=O)O)C=CC1=O`, the TGI with PC-3 prostate was found to be 35.9 µM; with 786-0 renal, 33.7 µM; in the assay with MDA-N, 33.2 µM; in the assay on HCC-2998 colon it was 34.5 µM; with SR leukemia it was 47 µM; in the assay on ACHN renal, 32.2 µM. Also, the TGI is 32.5 µM in the assay with M14 melanoma, 39 µM in the assay with BT-549 breast and 46 µM in the assay on RPMI-8226 leukemia.
`N#CC(C#N)=Cc1ccc(-c2ccc(-c3nc4ccccc4s3)cc2)s1`: the GI50 (commonly the concentration at which growth is held to half of that of the control) is 6.23 µM in the assay with PC-3 prostate; 27.9 µM in the assay on HCC-2998 colon; 13.4 µM in the assay on ACHN renal; 29.3 µM in the assay with M14 melanoma; 31.1 µM with BT-549 breast. Further, the TGI in the assay on PC-3 prostate is 23.1 µM; in the assay with HCC-2998 colon it was 65.8 µM; in the assay with ACHN renal it was 27.3 µM; in the assay on M14 melanoma, 96.2 µM; in the assay on BT-549 breast, 85.2 µM.
In the case of `N.N.N.N.O=S(=O)([O-])[O-].[Co+3].[OH3+].[OH3+]`, the TGI with 786-0 renal, in the assay with KM20L2 colon, in the assay on SNB-78 CNS, with ACHN renal, with DMS 273 small cell lung and in the assay with M14 melanoma was > 100 µM in each case. In addition, the TGI in the assay with RPMI-8226 leukemia and in the assay on DLD-1 colon was > 100 µM throughout.
In the case of `CCOC(=O)c1cc(Cl)ccc1OC(N)=O`, the TGI with KM20L2 colon, with HCC-2998 colon, in the assay with SNB-78 CNS, in the assay with M19-MEL melanoma, in the assay on DMS 273 small cell lung and in the assay on RPMI-8226 leukemia was > 100 µM each time. Besides, the TGI with DLD-1 colon was > 100 µM.
Take `O=C(CN1C(=O)c2ccccc2C1=O)OCC1CCCN2CCCCC12` (configuration not stated): the TGI with PC-3 prostate, with 786-0 renal, with MDA-N, in the assay with HCC-2998 colon, in the assay with ACHN renal and in the assay with BT-549 breast was > 100 µM throughout. Moreover, in the assay on RPMI-8226 leukemia, the TGI was > 100 µM.
Turning to `CN(C)C(=S)SCc1ccccc1`, the TGI in the assay with MDA-N, in the assay on M14 melanoma and in the assay on BT-549 breast was > 100 µM in each case.
In the case of `C(=N/Nc1ccccn1)/c1cccnc1`, the TGI in the assay with PC-3 prostate, with 786-0 renal, with MDA-N, in the assay on HCC-2998 colon, in the assay on ACHN renal and with M14 melanoma was > 100 µM throughout. The concentration for total growth inhibition (TGI) in the assay with BT-549 breast and with RPMI-8226 leukemia was > 100 µM throughout.
Consider `Clc1ccc(CSCc2ccc(Cl)cc2Cl)c(Cl)c1`, for which the TGI in the assay on PC-3 prostate is > 100 µM; in the assay with 786-0 renal, > 100 µM; in the assay with MDA-N, > 100 µM; in the assay on HCC-2998 colon, 98.2 µM; with ACHN renal, > 100 µM; in the assay with M14 melanoma, > 100 µM. The TGI in the assay on BT-549 breast is > 100 µM; in the assay on RPMI-8226 leukemia it was 88.6 µM.
For `CC(C)(C)C1=NN=C2c3ccccc3C(=O)C21` (configuration not stated), the TGI in the assay with PC-3 prostate is > 100 µM; with 786-0 renal, > 100 µM; with HCC-2998 colon, > 100 µM; in the assay with SR leukemia, 83 µM; with ACHN renal, > 100 µM; in the assay on M14 melanoma, > 100 µM. Moreover, the TGI in the assay on RPMI-8226 leukemia was > 100 µM.
Regarding `C/C(=C\c1ccc2c(c1)OCO2)[N+](=O)[O-]`, the concentration for total growth inhibition (TGI) in the assay with PC-3 prostate was 5.9 µM; in the assay on HCC-2998 colon it was 7.34 µM; with SR leukemia, 2.39 µM; in the assay on M14 melanoma, 42.5 µM; in the assay on RPMI-8226 leukemia, > 100 µM.
On to `O=C1c2ccc3ccccc3c2CCC1N1CCCCC1` (configuration not stated), for which the concentration for total growth inhibition (TGI) in the assay on PC-3 prostate was found to be 42.3 µM; in the assay on 786-0 renal, 32.1 µM; with SR leukemia, 36.6 µM; with ACHN renal, 31.5 µM; in the assay with BT-549 breast it was 74.7 µM.
Take `CCCCCCCCCCCCCCCCC(=O)N1CCCC1C(=O)NCC(=O)NC(C(=O)N1CCCC1C(=O)NC(CO)C(=O)NC(Cc1ccc(O)cc1)C(=O)NC(CCCCNC(=O)C1CCCN1C(=O)C(CCCCN)NC(=O)C(CCCCN)NC(=O)C(CCCCN)NC(=O)C(CCCNC(=N)N)NC(=O)C(CCCCN)NC(=O)C(N)C(C)C)C(=O)NC(CC(C)C)C(=O)NC(CCCNC(=N)N)C(=O)N1CCCC1C(=O)NCC(N)=O)c1ccccc1` (configuration not stated) (I: Heptadecanoyl-PG[Phg]PSYKLRPG-NH2 / II: H-VKRKKKP; amide I:7-II:C; configuration not given here): the GI50 in the assay on HCC-2998 colon was 4.36 µM; with M14 melanoma, 25.3 µM; in the assay with BT-549 breast, 36.5 µM; in the assay on RPMI-8226 leukemia, 13.5 µM. For the same compound, the total growth inhibition concentration (TGI) is 29.9 µM with HCC-2998 colon, 99.7 µM in the assay on M14 melanoma, 89.3 µM in the assay with BT-549 breast and 35.3 µM in the assay on RPMI-8226 leukemia.
